Measured values reported in patent US20240408325A1, “HANDHELD MEDICAL DEVICE WITH IMPROVED DELIVERY OF AEROSOL PARTICLES” (ALEXZA PHARMACEUTICALS, INC., priority 2021, published 2024).
Where a name gives a salt, the structure may show the parent alone.

Test: Purity of the aerosol versus drug foil temperature (Method 2)
Type: physicochemical
Conditions: Devices A, 1.0 mg coated
Method: Solutions were analysed by UPLC with water (ammonium formate/formic acid) and acetonitrile as mobile phase using UV detection at 275 nm as acquisition wavelength.
This method is based on the US Pharmacopeia “Sampling the Delivered Dose from Metered-Dose Inhalers” of the “Metered-Dose Inhalers and Dry Powder Inhalers” section.
The mouthpiece of the device to be tested was tightly attached to a mouthpiece adapter connected to an end of a 12 cm sample connection tube which at the other end has attached a filter support cap having a ø 47 mm, 2.2 μm pore size, quartz filter (QM-A, Whatman) which was connected to a pump to create an airflow which triggers the flow sensor and the foil substrate is heated.
The material in the filter and the sample connection tube was extracted with methanol and analysed as in Method 1.
The foil substrates of Devices A were coated with 1.0 mg of apomorphine HCl and tested as in Method 2 at different drug foil temperatures (2 devices per temperature point except 310° C. where 4 devices were used). The devices are triggered at a 30 mL/min airflow.

A TAerosol purity (drug foil 260 °C) of 98.4 ± 0.6%, a TAerosol purity (drug foil 290 °C) of 96.4 ± 0.9% and a TAerosol purity (drug foil 310 °C) of 95 ± 1% were found for `CN1CCc2cccc3c2[C@H]1Cc1ccc(O)c(O)c1-3` [apomorphine HCl] in this work. It also gave a TAerosol purity (drug foil 320 °C) of 90.9 ± 0.8%.
